Results from patent publication US20230346831A1, “METHODS FOR TREATING […] USING LOW DOSE CARBON MONOXIDE” (priority 2020, published 2023).

Assays:
HO-1 = assay: Western blot analysis; format: cell-based, human; conditions: two breast cancer cell lines (MCF7, MDA-MB-231); 250 ppm CO
Experimental: (§1) 1.5 × 10^6 cells were seeded in 6-cm cell culture plates with DMEM containing 10% FBS, 0.2 mM L-glutamine and 1% penicillin/streptomycin. Additionally, MCF7/TGL/pQ was cultured in media containing 0.5 µgml^-1 puromycin and 25 mM HEPES. After 16 hours of incubation, cells were lysed with RIPA buffer (0.1% SDS, 1% TritonX-100, 0.5% sodium deoxycholate, 25 mM Tris pH 8.0, 150 mM NaCl, and 1 mM EDTA) supplemented with a protease inhibitor mixture and PhosSTOP (Roche, Basel, Switzerland). Proteins were quantified with Bradford assay (Bio-Rad, Hercules CA). Equal amounts of proteins were separated with SDS-PAGE and transferred to nitrocellulose membranes. […] Protein bands were visualized by enhanced chemical luminescence (Pierce, Dallas, TX).
(§2) To investigate how CO reduces heme levels, whether CO decreased the transportation of heme into the cytosol was examined. […] Likewise, changes in protein levels of Bach 1 (a physiological repressor of HO-1 and a pro-metastatic transcription factor, whose degradation is reported to be mediated by heme in Nrf2-mutated lung cancer) was not detected (FIG. 4E). […]

Bach 1 = assay: Western blot analysis; format: cell-based, human; conditions: two breast cancer cell lines (MCF7, MDA-MB-231); 250 ppm CO
Experimental: as §1, §2

FLVCR1 = assay: expression of heme exporter; format: cell-based, human; conditions: MCF7/TGL and MDA-MB-231/TGL cells; with or without 250 ppm CO
Excerpt: To investigate how CO reduces heme levels, whether CO decreased the transportation of heme into the cytosol was examined. […] Furthermore, heme oxygenases (HO-1, HO-2, and HO-3) cleave heme into 3 products: CO, ferrous ions (Fe2+), and biliverdin. […] So, whether there was an increase of HO-1 expression by low-dose CO treatment that could contribute to heme degradation was examined. […] Likewise, changes in protein levels of Bach 1 (a physiological repressor of HO-1 and a pro-metastatic transcription factor, whose degradation is reported to be mediated by heme in Nrf2-mutated lung cancer) was not detected (FIG. 4E). […] Taken together, CO decreased heme importers to lower intracellular heme levels, which inhibited cancer cell migration.

MDA-MB-231/TGL cells = assay: experimental tail vein lung metastasis assay, human breast cancer xenograft; format: in vivo, NSG mice
Experimental: NSG mice were generated by the Jackson Laboratory. All mice were housed in accordance with the institutional guidelines. All procedures involving mice were approved by the institutional animal care and use committee of Weill Cornell Medicine. 1 × 10^5 or 5 × 10^4 MDA-MB-231/TGL cells in 150 µl PBS were injected into the tail veins of female NSG mice at the age of 7-8 weeks (n=5/group for 1× 10^5 cells and n = 6/group for 5 × 10^4 cells). 1× 10^4 8988T/TGL cells in 100 µl PBS were injected into spleen of NSG mice at age of 7-8 weeks (n=4/group, male and female) to observe the liver metastasis (G. Zhang, & Y. N. Du, Methods Mol Biol 1882, 309-320 (2019)). The spleen was removed after the injection. Starting one day after injection, mice were randomized into two groups. One group was kept in a regular mouse holding room (control), and the other group was put into a chamber delivering 250 ppm CO 3 hours daily. Mice were subjected to bioluminescent imaging using the In Vivo Imaging System Spectrum (PerkinElmer, Waltham, MA) at 0, 1, 3 days and then weekly after tumor cells were injected until the final time points, as described previously by Y. C. Du, D. S. Klimstra, & H. Varmus, PLoS One 4, e6932 (2009)). Luciferase signals were transformed to nature log scale before analysis. GEE method was used to test the overall difference of tumor growth over time. All analyses were performed in statistical software SAS Version 9.4 (SAS Institute, Cary, NC).
Mouse tissues were removed and fixed in 10% buffered formalin overnight at room temperature. Formalin-fixed/paraffin-embedded sections (5-µm) were deparaffinized and rehydrated by passage through a graded xylene/ethanol series before staining. Immunochemistry was performed using the VECTASTAIN Elite ABC kit following the manufacturer’s instructions. Tumor number and tumor size were quantified by scanning the whole tissue slide of each mouse under microscope. The size of tumor area of each tumor was measured by the cellSens imaging software (Olympus, Tokyo, Japan). Total tumor area of each mouse or total tumor number of each mouse was plotted. The primary antibodies used were cleaved caspase 3 (1:333; Cell Signaling Tech (Cat. No. 9661), Danvers, MA) and Ki67 (1:1000, Vector Labs (Cat. No. VP-K451), Burlingame, CA).
To determine whether 250 ppm CO inhibits cancer metastasis in vivo, an experimental tail vein metastasis assay with TNBC MDA-MB-231 cell line was performed. 0.1 million MDA-MB-231/TGL (luciferase reporter) cells were injected into the tail vein of the NOD/scid-lL2Rgc knockout (NSG) immunodeficient mice. Mice were randomly divided in to two groups after injection. […]

[C-]#[O+] [CO, Carbon monoxide]
increase of HO-1 expression (HO-1): not detected
changes in protein levels of Bach 1 (Bach 1): not detected
FLVCR1 (heme exporter) expression (FLVCR1): no significant/consistent changes
metastatic tumor burden in lung sections (histological analysis) (MDA-MB-231/TGL cells; 0.1 million MDA-MB-231/TGL cells tail vein, NSG mice, 250 ppm CO gas 3 hours daily, 23-day time point, vs control): significantly lower
appearance / signs of sickness of the mice (MDA-MB-231/TGL cells; 0.1 million MDA-MB-231/TGL cells tail vein, 250 ppm CO 3 hours daily, control group lethargic after 23 days): looked healthy and had no signs of sickness
metastatic tumor burden in lung sections (histological analysis) (MDA-MB-231/TGL cells; 5 × 10^4 MDA-MB-231/TGL cells tail vein, 250 ppm CO 3 hours daily, 7 days/week, 25 days after the injection): significantly lower
bioluminescent signals (whole mice) over time (MDA-MB-231/TGL cells; 5 × 10^4 MDA-MB-231/TGL cells tail vein, 250 ppm CO 3 hours daily, 7 days/week, imaging to 3 weeks, P = 0.0016, GEE method): significantly lower
